Values after ≈ are worked out from the molar mass of the structure shown. Like-named read-outs stand apart in the source and are kept apart here.
Columns and labels:
S. aureus ATCC 25923 [1] = test: Antibacterial activity, post-exposure on preformed 18-h-old biofilms; format: cell-based, Staphylococcus aureus; settings: ± SD; for inhibition at 25 µM / inhibition at 50 µM / inhibition at 100 µM / inhibition at 200 µM: Staphylococcus aureus; for inhibition at 25 µM: ATCC25923, 25 µM; for inhibition at 50 µM: ATCC25923, 50 µM; for inhibition at 100 µM: ATCC25923, 100 µM; for inhibition at 200 µM: ATCC25923, 200 µM
In short: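 Compounds were applied to preformed 18-h biofilms after medium change and left 24 h. Read-outs: planktonic OD plus resazurin fluorescence (20 μM), biofilm metabolic activity by resazurin 30 min at 37 °C, then biomass by crystal violet absorbance at 595 nm after ethanol fixation.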

A. baumannii NCTC 13423 = test: Antibacterial activity, pre-exposure; format: cell-based, Acinetobacter baumannii; settings: for Average inhibition %, biofilms viability / Average inhibition %, planktonic cells viability / inhibition at 10 µM / inhibition at 15 µM / inhibition at 25 µM / inhibition at 50 µM: A. baumannii NCTC 13423, pre-exposure, ± SD; for inhibition at 10 µM / inhibition at 15 µM / inhibition at 25 µM / inhibition at 50 µM / MIC: Acinetobacter baumannii, NCTC13423
In short: (§1)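 Bacteria and compound were co-incubated from the start for 18 h at 37 °C, 220 rpm. Planktonic cells scored by turbidity plus resazurin reduction; washed biofilms scored by 20 μM resazurin (30, 60, 90 min for S. aureus, A. baumannii, P. aeruginosa) and ethanol-fixed crystal violet staining.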

P. aeruginosa ATCC 9027 = test: Antibacterial activity, pre-exposure; format: cell-based, Pseudomonas aeruginosa; settings: for Average inhibition %, biofilms viability / Average inhibition %, planktonic cells viability / inhibition at 50 µM / inhibition at 100 µM / inhibition at 150 µM / inhibition at 200 µM: P. aeruginosa ATCC 9027, pre-exposure, ± SD; for MIC / inhibition at 50 µM / inhibition at 100 µM / inhibition at 150 µM / inhibition at 200 µM: Pseudomonas aeruginosa; for inhibition at 50 µM / inhibition at 100 µM / inhibition at 150 µM / inhibition at 200 µM: ATCC9027
In short: as §1

S. aureus ATCC 25923 [2] = test: Antibacterial activity, pre-exposure (planktonic cells and biofilm formation); format: cell-based, Staphylococcus aureus; settings: for MIC / inhibition at 5 µM / inhibition at 10 µM / inhibition at 15 µM / inhibition at 25 µM: Staphylococcus aureus, ATCC25923; for inhibition at 5 µM / inhibition at 10 µM / inhibition at 15 µM / inhibition at 25 µM / Average inhibition %, biofilms viability / Average inhibition %, planktonic cells viability: pre-exposure, ± SD
In short: as §1

[3] = read-out: Average inhibition %, biofilms biomass
[4] = read-out: Average inhibition %, planktonic cells turbidity
[5] = 10 µM, read-out: Average inhibition %, biofilms biomass
[6] = 10 µM, read-out: Average inhibition %, planktonic cells turbidity
[7] = 15 µM, read-out: Average inhibition %, biofilms biomass
[8] = 15 µM, read-out: Average inhibition %, planktonic cells turbidity
[9] = 25 µM, read-out: Average inhibition %, biofilms biomass
[10] = 25 µM, read-out: Average inhibition %, planktonic cells turbidity
[11] = 50 µM, read-out: Average inhibition %, biofilms biomass
[12] = 50 µM, read-out: Average inhibition %, planktonic cells turbidity

Compound: CCCCCCCCCCc1ccc(CCC(N)(CO)CO)nc1 [Compound 62, 2-Amino-2-[2-(5-decylpyridin-2-yl)ethyl]propane-1,3-diol]
- Average inhibition %, biofilms viability (S. aureus ATCC 25923 [1]; 25 µM): 12.6 ± 12.7%
- Average inhibition %, planktonic cells viability (S. aureus ATCC 25923 [1]; 25 µM): 0 ± 0%
- Average inhibition %, biofilms viability (S. aureus ATCC 25923 [1]; 50 µM): 37.2 ± 4.9%
- Average inhibition %, planktonic cells viability (S. aureus ATCC 25923 [1]; 50 µM): 0 ± 0%
- Average inhibition %, biofilms viability (S. aureus ATCC 25923 [1]; 100 µM): 56.4 ± 12%
- Average inhibition %, planktonic cells viability (S. aureus ATCC 25923 [1]; 100 µM): 55.8 ± 42.1%
- Average inhibition %, biofilms viability (S. aureus ATCC 25923 [1]; 200 µM): 99.3 ± 0.3%
- Average inhibition %, planktonic cells viability (S. aureus ATCC 25923 [1]; 200 µM): 100.1 ± 0.1%
- inhibition at 25 µM (S. aureus ATCC 25923 [1]; [3]): 43.1 ± 11%
- inhibition at 25 µM (S. aureus ATCC 25923 [1]; [4]): 15.7 ± 12.5%
- inhibition at 50 µM (S. aureus ATCC 25923 [1]; [3]): 63.9 ± 10.9%
- inhibition at 50 µM (S. aureus ATCC 25923 [1]; [4]): 16.7 ± 24.2%
- inhibition at 100 µM (S. aureus ATCC 25923 [1]; [3]): 76.2 ± 5.6%
- inhibition at 100 µM (S. aureus ATCC 25923 [1]; [4]): 57.6 ± 29.3%
- inhibition at 200 µM (S. aureus ATCC 25923 [1]; [3]): 80.8 ± 3.8%
- inhibition at 200 µM (S. aureus ATCC 25923 [1]; [4]): 89.9 ± 1.7%
- Average inhibition %, biofilms viability (A. baumannii NCTC 13423; 10 µM): 40 ± 33.9%
- Average inhibition %, planktonic cells viability (A. baumannii NCTC 13423; 10 µM): 37.7 ± 25.3%
- Average inhibition %, biofilms viability (A. baumannii NCTC 13423; 15 µM): 100.5 ± 1%
- Average inhibition %, planktonic cells viability (A. baumannii NCTC 13423; 15 µM): 99.8 ± 0.4%
- Average inhibition %, biofilms viability (A. baumannii NCTC 13423; 25 µM): 101.2 ± 1.3%
- Average inhibition %, planktonic cells viability (A. baumannii NCTC 13423; 25 µM): 99.7 ± 0.3%
- Average inhibition %, biofilms viability (A. baumannii NCTC 13423; 50 µM): 101.3 ± 1.2%
- Average inhibition %, planktonic cells viability (A. baumannii NCTC 13423; 50 µM): 99.7 ± 0.2%
- inhibition at 10 µM (A. baumannii NCTC 13423; [5]): 21.3 ± 18.9%
- inhibition at 10 µM (A. baumannii NCTC 13423; [6]): 46 ± 39.6%
- inhibition at 15 µM (A. baumannii NCTC 13423; [7]): 85.4 ± 2%
- inhibition at 15 µM (A. baumannii NCTC 13423; [8]): 99.3 ± 0.9%
- inhibition at 25 µM (A. baumannii NCTC 13423; [9]): 83.1 ± 3%
- inhibition at 25 µM (A. baumannii NCTC 13423; [10]): 99.2 ± 0.9%
- inhibition at 50 µM (A. baumannii NCTC 13423; [11]): 79 ± 9.4%
- inhibition at 50 µM (A. baumannii NCTC 13423; [12]): 98.8 ± 0.9%
- MIC (A. baumannii NCTC 13423; pre-exposure, Inactive = no activity up to 50 μM, > = some inhibition but no MIC reached, read-out: MIC A. baumannii NCTC 13423): 15 µM (≈ 5.05 µg/mL)
- MIC (A. baumannii NCTC 13423; supplementary molecular formula strings sheet, read-out: MIC (A. baumannii)): 15 µM (≈ 5.05 µg/mL)
- Average inhibition %, biofilms viability (P. aeruginosa ATCC 9027; 50 µM): 13.5 ± 11.7%
- Average inhibition %, planktonic cells viability (P. aeruginosa ATCC 9027; 50 µM): 18.7 ± 18.1%
- Average inhibition %, biofilms viability (P. aeruginosa ATCC 9027; 100 µM): 13.6 ± 3.2%
- Average inhibition %, planktonic cells viability (P. aeruginosa ATCC 9027; 100 µM): 39.6 ± 45.8%
- Average inhibition %, biofilms viability (P. aeruginosa ATCC 9027; 150 µM): 27.7 ± 14.8%
- Average inhibition %, planktonic cells viability (P. aeruginosa ATCC 9027; 150 µM): 76.3 ± 19.2%
- Average inhibition %, biofilms viability (P. aeruginosa ATCC 9027; 200 µM): 61.8 ± 34.8%
- Average inhibition %, planktonic cells viability (P. aeruginosa ATCC 9027; 200 µM): 94.7 ± 4.6%
- MIC (P. aeruginosa ATCC 9027; ATCC9027, pre-exposure, Inactive = no activity up to 200 μM, > = some inhibition but no MIC reached, read-out: MIC P. aeruginosa ATCC 9027): > 200 µM
- MIC (P. aeruginosa ATCC 9027; ATCC9027, supplementary molecular formula strings sheet, read-out: MIC (P. aeruginosa)): > 200 µM
- inhibition at 50 µM (P. aeruginosa ATCC 9027; [11]): 19.7 ± 9.7%
- inhibition at 50 µM (P. aeruginosa ATCC 9027; [12]): 35.6 ± 9.3%
- inhibition at 100 µM (P. aeruginosa ATCC 9027; 100 µM, read-out: Average inhibition %, biofilms biomass): 18.6 ± 19.2%
- inhibition at 100 µM (P. aeruginosa ATCC 9027; 100 µM, read-out: Average inhibition %, planktonic cells turbidity): 58 ± 23%
- inhibition at 150 µM (P. aeruginosa ATCC 9027; 150 µM, read-out: Average inhibition %, biofilms biomass): 21 ± 3.9%
- inhibition at 150 µM (P. aeruginosa ATCC 9027; 150 µM, read-out: Average inhibition %, planktonic cells turbidity): 84.5 ± 4.1%
- inhibition at 200 µM (P. aeruginosa ATCC 9027; 200 µM, read-out: Average inhibition %, biofilms biomass): 38.5 ± 47.1%
- inhibition at 200 µM (P. aeruginosa ATCC 9027; 200 µM, read-out: Average inhibition %, planktonic cells turbidity): 92.5 ± 5%
- MIC (S. aureus ATCC 25923 [2]; lowest concentration with no visible growth (>90% inhibition of turbidity and viability of planktonic cells), 18 h, read-out: MIC S. aureus ATCC 25923): 15 µM (≈ 5.05 µg/mL)
- inhibition at 5 µM (S. aureus ATCC 25923 [2]; 5 µM, read-out: Average inhibition %, biofilms biomass): 34.5 ± 10.1%
- inhibition at 5 µM (S. aureus ATCC 25923 [2]; 5 µM, read-out: Average inhibition %, planktonic cells turbidity): 9.5 ± 10.5%
- inhibition at 10 µM (S. aureus ATCC 25923 [2]; [5]): 46 ± 8%
- inhibition at 10 µM (S. aureus ATCC 25923 [2]; [6]): 15.6 ± 7.5%
- inhibition at 15 µM (S. aureus ATCC 25923 [2]; [7]): 91.8 ± 5.5%
- inhibition at 15 µM (S. aureus ATCC 25923 [2]; [8]): 85.8 ± 12.4%
- inhibition at 25 µM (S. aureus ATCC 25923 [2]; [9]): 94.8 ± 1.6%
- inhibition at 25 µM (S. aureus ATCC 25923 [2]; [10]): 99.1 ± 0.7%
- MIC (S. aureus ATCC 25923 [2]; read-out: MIC (S. aureus)): 15 µM (≈ 5.05 µg/mL)
- MIC S. aureus ATCC 25923 (S. aureus ATCC 25923 [2]; lowest concentration with no visible growth (>90% inhibition of turbidity and viability of planktonic cells), 18 h): same MIC as fingolimod
- Average inhibition %, biofilms viability (S. aureus ATCC 25923 [2]; 5 µM): 23.3 ± 7.1%
- Average inhibition %, planktonic cells viability (S. aureus ATCC 25923 [2]; 5 µM): 0 ± 0%
- Average inhibition %, biofilms viability (S. aureus ATCC 25923 [2]; 10 µM): 35.7 ± 5.8%
- Average inhibition %, planktonic cells viability (S. aureus ATCC 25923 [2]; 10 µM): 0 ± 0%
- Average inhibition %, biofilms viability (S. aureus ATCC 25923 [2]; 15 µM): 95.2 ± 3.8%
- Average inhibition %, planktonic cells viability (S. aureus ATCC 25923 [2]; 15 µM): 92.4 ± 6.5%
- Average inhibition %, biofilms viability (S. aureus ATCC 25923 [2]; 25 µM): 99.6 ± 0.2%
- Average inhibition %, planktonic cells viability (S. aureus ATCC 25923 [2]; 25 µM): 100 ± 0.1%

Reference: PMC8296573, “Synthesis and Biological Evaluation of Fingolimod Derivatives as Antibacterial Agents” (ACS Omega, 2021)
